Results as given in patent US20120064219A1, “EXTRUDED PARTICLES” (Firmenich SA, priority 2009, published 2012).
Peptide text beside a SMILES is read from it.

Test: LC-MS analysis of saliva samples of panelists chewing the gums
Assay type: in vivo
Description: 3 panelists were given various samples of chewing gum prepared above and instructed to chew the gums for 60 minutes. At various intervals, a saliva sample was taken from each panelist, diluted 50 times in water and then analysed by standard LC-MS to confirm the amount of sweetening component remaining in the mouth.

[1] = encapsulated form in chewing gum

Row | Structure (SMILES) | effect of encapsulation on the release profile compared to the unencapsulated form (chewing gum, saliva) | release profile in saliva (in words) [1] | release profile in saliva (in words) (unencapsulated form in chewing gum)
1 | CC1=CC(=O)[N-]S(=O)(=O)O1.[K+] [Acesulfame K] | little effect |  | 
2 | COC(=O)[C@H](Cc1ccccc1)NC(=O)[C@@H](N)CC(=O)O [aspartame] (H-Asp-Phe-OMe) |  | releasing at a surprisingly stable rate for up to 40 minutes | 
3 | OC[C@H]1O[C@H](O[C@]2(CCl)O[C@H](CCl)[C@@H](O)[C@@H]2O)[C@H](O)[C@@H](O)[C@H]1Cl [sucralose] |  | remains remarkably stable for at least until 20 minutes | diminishes rapidly almost immediately
